# Measurements published in patent US20180200257A1, “METHODS FOR THE TREATMENT OF INFLAMMATORY DISORDERS” (Galapagos NV, priority 2015, published 2018).
# Test system: subjects with moderately to severely active RA who have an inadequate response to methotrexate (MTX)
# Assay: Study 1 (add-on to MTX) - Aspartate Aminotransferase (AST) levels
# Assay type: in vivo, human
# Protocol: Double-blind, placebo-controlled add on study in subjects with moderately to severely active RA who have an inadequate response to methotrexate (MTX) (oral or parenteral).
# 595 subjects randomized to one of 6 dose regimens of Compound 1 (dosed as [Compound 1:HCl:3H2O]) (3 dose levels administered either once or twice daily) or placebo on top of each subject's stable dose of MTX.
# Compound 1 (dosed as [Compound 1:HCl:3H2O]) is dosed for twelve weeks once daily (q.d.) (50 mg, 100 mg or 200 mg) or twice daily (b.i.d.) (25 mg, 50 mg or 100 mg); or placebo.
# At Week 12, the subjects on placebo who have not achieved 20% improvement in swollen joint count (SJC66) and tender joint count (TJC68) are re-randomized automatically to receive Compound 1 (dosed as a [Compound 1:HCl:3H2O]) either at 100 mg q.d. or 50 mg b.i.d. doses in a blinded fashion; subjects on 50 mg q.d. who have not achieved 20% improvement in SJC66 and TJC68 will be assigned to 100 mg q.d. and subjects on 25 mg b.i.d. that have not achieved a 20% improvement in SJC66 and TJC68 will be assigned to 50 mg b.i.d. Subjects who switch treatment at week 12 are handled as if they discontinued at week 12 for the purpose of statistical analysis, whereas subjects in the other groups will maintain their randomized treatment until Week 24.
# AST levels determination is available at Quest Diagnostics, Clinical Trials, Quest House, 125-135 Staines Road, Hounslow, Middlesex, TW3 3JB, United Kingdom under Catalogue n#84450. For Study 3, the data are obtained at BARC Europe, 3B,Industrie Park, Zwijnaarde, B-9052 Ghent, Belgium.
# AST catalyzes the transamination of aspartate and 2-oxoglutarate, forming L-glutamate and oxalacetate. The oxalacetate is reduced to L-malate by malate dehydrogenase, whilst NADH is converted to NAD+, measured spectrophotometrically. Guidelines for the AST value have been issued by the association for Clinical Biochemistry and Laboratory Medicine, 130-132 Tooley Street LONDON SE1 2TU, united Kingdom, wherein the AST value should be below 34 U/l in Female and below 45 U/L in male. As disclosed in the respective study protocols for Study 1 or 2, at week 12, depending on the outcome of their treatment, the subjects may be continued in their initial treatment course, or reassigned to another treatment group in a randomized blinded fashion until week 24. Therefore, the number of subjects (N) for the period of either 12 weeks, or 24 weeks is provided to reflect this redistribution at week 12.
# [1] = 12 weeks results, 50 mg q.d., week 1
# [2] = 12 weeks results, 50 mg q.d., week 2
# [3] = 12 weeks results, 50 mg q.d., week 4
# [4] = 12 weeks results, 50 mg q.d., week 8
# [5] = 12 weeks results, 50 mg q.d., week 12
# [6] = 12 weeks results, 100 mg q.d., week 1
# [7] = 12 weeks results, 100 mg q.d., week 2
# [8] = 12 weeks results, 100 mg q.d., week 4
# [9] = 12 weeks results, 100 mg q.d., week 8
# [10] = 12 weeks results, 100 mg q.d., week 12
# [11] = 12 weeks results, 200 mg q.d., week 1
# [12] = 12 weeks results, 200 mg q.d., week 2
# [13] = 12 weeks results, 200 mg q.d., week 4
# [14] = 12 weeks results, 200 mg q.d., week 8
# [15] = 12 weeks results, 200 mg q.d., week 12
# [16] = 12 weeks results, 2 × 25 mg b.i.d., week 1
# [17] = 12 weeks results, 2 × 25 mg b.i.d., week 2
# [18] = 12 weeks results, 2 × 25 mg b.i.d., week 4
# [19] = 12 weeks results, 2 × 25 mg b.i.d., week 8
# [20] = 12 weeks results, 2 × 25 mg b.i.d., week 12
# [21] = 12 weeks results, 2 × 50 mg b.i.d., week 1
# [22] = 12 weeks results, 2 × 50 mg b.i.d., week 2
# [23] = 12 weeks results, 2 × 50 mg b.i.d., week 4
# [24] = 12 weeks results, 2 × 50 mg b.i.d., week 8
# [25] = 12 weeks results, 2 × 50 mg b.i.d., week 12
# [26] = 12 weeks results, 2 × 100 mg b.i.d., week 1
# [27] = 12 weeks results, 2 × 100 mg b.i.d., week 2
# [28] = 12 weeks results, 2 × 100 mg b.i.d., week 4
# [29] = 12 weeks results, 2 × 100 mg b.i.d., week 8
# [30] = 12 weeks results, 2 × 100 mg b.i.d., week 12
# [31] = 24 weeks results, continued 25 mg b.i.d., week 1
# [32] = 24 weeks results, continued 25 mg b.i.d., week 2
# [33] = 24 weeks results, continued 25 mg b.i.d., week 4
# [34] = 24 weeks results, continued 25 mg b.i.d., week 8
# [35] = 24 weeks results, continued 25 mg b.i.d., week 12
# [36] = 24 weeks results, continued 25 mg b.i.d., week 16
# [37] = 24 weeks results, continued 25 mg b.i.d., week 20
# [38] = 24 weeks results, continued 25 mg b.i.d., week 24
# [39] = 24 weeks results, continued 50 mg b.i.d., week 1
# [40] = 24 weeks results, continued 50 mg b.i.d., week 2
# [41] = 24 weeks results, continued 50 mg b.i.d., week 4
# [42] = 24 weeks results, continued 50 mg b.i.d., week 8
# [43] = 24 weeks results, continued 50 mg b.i.d., week 12
# [44] = 24 weeks results, continued 50 mg b.i.d., week 16
# [45] = 24 weeks results, continued 50 mg b.i.d., week 20
# [46] = 24 weeks results, continued 50 mg b.i.d., week 24
# [47] = 24 weeks results, continued 50 mg q.d., week 1
# [48] = 24 weeks results, continued 50 mg q.d., week 2
# [49] = 24 weeks results, continued 50 mg q.d., week 4
# [50] = 24 weeks results, continued 50 mg q.d., week 8
structure (smiles),measurement,setting,value
"O=C(Nc1nc2cccc(-c3ccc(CN4CCS(=O)(=O)CC4)cc3)n2n1)C1CC1 [Compound 1, cyclopropanecarboxylic acid {5-[4-(1,1-dioxo-thiomorpholin-4-ylmethyl)-phenyl]-[1,2,4]triazolo[1,5-a]pyridin-2-yl}-amide]",Study 1 - AST Mean CFB,[1],1 IU/L
same,Study 1 - AST Mean percentage CFB,[1],7%
same,Study 1 - AST Mean CFB,[2],0 IU/L
same,Study 1 - AST Mean percentage CFB,[2],5%
same,Study 1 - AST Mean CFB,[3],0 IU/L
same,Study 1 - AST Mean percentage CFB,[3],5%
same,Study 1 - AST Mean CFB,[4],0 IU/L
same,Study 1 - AST Mean percentage CFB,[4],7%
same,Study 1 - AST Mean CFB,[5],1 IU/L
same,Study 1 - AST Mean percentage CFB,[5],10%
same,Study 1 - AST Mean CFB,[6],3 IU/L
same,Study 1 - AST Mean percentage CFB,[6],14%
same,Study 1 - AST Mean CFB,[7],1 IU/L
same,Study 1 - AST Mean percentage CFB,[7],9%
same,Study 1 - AST Mean CFB,[8],2 IU/L
same,Study 1 - AST Mean percentage CFB,[8],11%
same,Study 1 - AST Mean CFB,[9],3 IU/L
same,Study 1 - AST Mean percentage CFB,[9],17%
same,Study 1 - AST Mean CFB,[10],2 IU/L
same,Study 1 - AST Mean percentage CFB,[10],16%
same,Study 1 - AST Mean CFB,[11],3 IU/L
same,Study 1 - AST Mean percentage CFB,[11],16%
same,Study 1 - AST Mean CFB,[12],2 IU/L
same,Study 1 - AST Mean percentage CFB,[12],13%
same,Study 1 - AST Mean CFB,[13],3 IU/L
same,Study 1 - AST Mean percentage CFB,[13],19%
same,Study 1 - AST Mean CFB,[14],5 IU/L
same,Study 1 - AST Mean percentage CFB,[14],27%
same,Study 1 - AST Mean CFB,[15],5 IU/L
same,Study 1 - AST Mean percentage CFB,[15],29%
same,Study 1 - AST Mean CFB,[16],0 IU/L
same,Study 1 - AST Mean percentage CFB,[16],3%
same,Study 1 - AST Mean CFB,[17],0 IU/L
same,Study 1 - AST Mean percentage CFB,[17],6%
same,Study 1 - AST Mean CFB,[18],0 IU/L
same,Study 1 - AST Mean percentage CFB,[18],6%
same,Study 1 - AST Mean CFB,[19],0 IU/L
same,Study 1 - AST Mean percentage CFB,[19],10%
same,Study 1 - AST Mean CFB,[20],2 IU/L
same,Study 1 - AST Mean percentage CFB,[20],14%
same,Study 1 - AST Mean CFB,[21],1 IU/L
same,Study 1 - AST Mean percentage CFB,[21],6%
same,Study 1 - AST Mean CFB,[22],0 IU/L
same,Study 1 - AST Mean percentage CFB,[22],6%
same,Study 1 - AST Mean CFB,[23],2 IU/L
same,Study 1 - AST Mean percentage CFB,[23],14%
same,Study 1 - AST Mean CFB,[24],2 IU/L
same,Study 1 - AST Mean percentage CFB,[24],14%
same,Study 1 - AST Mean CFB,[25],2 IU/L
same,Study 1 - AST Mean percentage CFB,[25],17%
same,Study 1 - AST Mean CFB,[26],1 IU/L
same,Study 1 - AST Mean percentage CFB,[26],10%
same,Study 1 - AST Mean CFB,[27],2 IU/L
same,Study 1 - AST Mean percentage CFB,[27],14%
same,Study 1 - AST Mean CFB,[28],3 IU/L
same,Study 1 - AST Mean percentage CFB,[28],19%
same,Study 1 - AST Mean CFB,[29],2 IU/L
same,Study 1 - AST Mean percentage CFB,[29],17%
same,Study 1 - AST Mean CFB,[30],3 IU/L
same,Study 1 - AST Mean percentage CFB,[30],20%
same,Study 1 - AST Mean CFB,[31],0.7 IU/L
same,Study 1 - AST Mean percentage CFB,[31],6.7%
same,Study 1 - AST Mean CFB,[32],0.7 IU/L
same,Study 1 - AST Mean percentage CFB,[32],7.1%
same,Study 1 - AST Mean CFB,[33],1.0 IU/L
same,Study 1 - AST Mean percentage CFB,[33],8.6%
same,Study 1 - AST Mean CFB,[34],1.6 IU/L
same,Study 1 - AST Mean percentage CFB,[34],14.0%
same,Study 1 - AST Mean CFB,[35],2.2 IU/L
same,Study 1 - AST Mean percentage CFB,[35],16.4%
same,Study 1 - AST Mean CFB,[36],1.4 IU/L
same,Study 1 - AST Mean percentage CFB,[36],12.6%
same,Study 1 - AST Mean CFB,[37],1.1 IU/L
same,Study 1 - AST Mean percentage CFB,[37],10.8%
same,Study 1 - AST Mean CFB,[38],1.7 IU/L
same,Study 1 - AST Mean percentage CFB,[38],14.0%
same,Study 1 - AST Mean CFB,[39],0.5 IU/L
same,Study 1 - AST Mean percentage CFB,[39],5.7%
same,Study 1 - AST Mean CFB,[40],0.4 IU/L
same,Study 1 - AST Mean percentage CFB,[40],5.5%
same,Study 1 - AST Mean CFB,[41],1.8 IU/L
same,Study 1 - AST Mean percentage CFB,[41],14.4%
same,Study 1 - AST Mean CFB,[42],1.7 IU/L
same,Study 1 - AST Mean percentage CFB,[42],14.0%
same,Study 1 - AST Mean CFB,[43],2.4 IU/L
same,Study 1 - AST Mean percentage CFB,[43],17.1%
same,Study 1 - AST Mean CFB,[44],1.9 IU/L
same,Study 1 - AST Mean percentage CFB,[44],13.7%
same,Study 1 - AST Mean CFB,[45],3.4 IU/L
same,Study 1 - AST Mean percentage CFB,[45],20.7%
same,Study 1 - AST Mean CFB,[46],1.5 IU/L
same,Study 1 - AST Mean percentage CFB,[46],11.1%
same,Study 1 - AST Mean CFB,[47],0.8 IU/L
same,Study 1 - AST Mean percentage CFB,[47],7.5%
same,Study 1 - AST Mean CFB,[48],−0.2 IU/L
same,Study 1 - AST Mean percentage CFB,[48],5.7%
same,Study 1 - AST Mean CFB,[49],−0.4 IU/L
same,Study 1 - AST Mean percentage CFB,[49],5.2%
same,Study 1 - AST Mean CFB,[50],0.4 IU/L
same,Study 1 - AST Mean percentage CFB,[50],9.0%
